# Results: US20090042883A1, “ANTITUMOR AGENT” (KYOWA HAKKOKOGYO CO., priority 2005, published 2009)
# Legend:
# Assay type in all cases: cell-based
# [1] = system: human chronic myelocytic leukemia K562 cells; assay: Growth inhibition test on human chronic myelocytic leukemia K562 cells (WST-1, % viability); settings: test compound 10 μmol/L, 72 hours, cells without test compound = 100%
# Protocol: (§1) One thousand cells of human chronic myelocytic leukemia K562 were inoculated into each well of a 96-well microplate (manufactured by Nunc Corp.), and using RPMI1640 medium (culture medium) containing 10% fetal calf serum (FCS), preculturing was performed in a 5% carbon dioxide incubator at 37° C. for 24 hours. A dimethyl sulfoxide (DMSO) solution of each test compound prepared in a concentration of 10 mmol/L was diluted with the culture medium to a final concentration of 10 μmol/L, and the diluted solution was added to each well. The individual wells were further cultured in the 5% carbon dioxide incubator at 37° C. for 72 hours. After completion of the culturing, 10 μL of WST-1 {4-[3-(4-Iodophenyl)-2-(4-nitrophenyl)-2H-5-tetrazolio]-1,3-benzene disulfonate} labeled mixture (manufactured by Roche Diagnostic Corp.) was added to each well, and culturing was performed in the 5% carbon dioxide incubator at 37° C. for 2 hours. Using a microplate spectrophotometer (SpectraMax 340PC384; manufactured by Nihon Molecular Devices), the absorbance of each well was measured at 450 nm and 655 nm. The value obtained by subtracting the absorbance at 450 nm from the absorbance at 655 nm (absorbance difference) was calculated for each well. The value for cells not incorporated with a test compound was designated as 100%, and the value at a well not containing cells was designated as 0%. By comparing these values with the absorbance difference obtained at the well in which each test compound was added, the cell viability (% viability) after treatment with the test compound was calculated.
# [2] = system: human multiple myeloma NCI-H929 cells; assay: Growth inhibition test on human multiple myeloma NCI-H929 cells (WST-1, % viability); settings: test compound 10 μmol/L, cells without test compound = 100%
# Protocol: as §1, with “Ten” for “One”, “multiple myeloma NCI-H929” for “chronic myelocytic leukemia K562”, “RPMI” for “RPMI1640”, “FCS,” for “fetal calf serum (FCS),”, “DMSO” for “dimethyl sulfoxide (DMSO)”, “WST-1” for “WST-1 {4-[3-(4-Iodophenyl)-2-(4-nitrophenyl)-2H-5-tetrazolio]-1,3-benzene disulfonate}”
# [3] = system: human chronic lymphocytic leukemia-derived MEC-1 cells; assay: Growth inhibition test on human chronic lymphocytic leukemia-derived MEC-1 cells (WST-1, % viability); settings: test compound 10 μmol/L, 72 hours, cells without test compound = 100%
# Protocol: Ten thousand cells of human chronic lymphocytic leukemia-derived MEC-1 were inoculated into each well of a 96-well microplate (manufactured by Nunc Corp.), and using RPMI1640 medium (culture medium) containing 10% FCS, preculturing was performed in a 5% carbon dioxide incubator at 37° C. for 1 hour. A DMSO solution of each test compound prepared in a concentration of 10 mmol/L was diluted with the culture medium to a final concentration of 10 μmol/L, and the diluted solution was added to each well. The individual wells were further cultured in the 5% carbon dioxide incubator at 37° C. for 72 hours. After completion of the culturing, 10 μL of WST-1 labeled mixture (manufactured by Roche Diagnostic Corp.) was added to each well, and culturing was performed in the 5% carbon dioxide incubator at 37° C. for 3 hours. Using a microplate spectrophotometer (M-SPmax 250; manufactured by Molecular Devices Corp.), the absorbance of each well was measured at 450 nm and 655 nm. The value obtained by subtracting the absorbance at 450 nm from the absorbance at 655 nm (absorbance difference) was calculated for each well. The value for cells not incorporated with a test compound was designated as 100%, and the value at a well not containing cells was designated as 0%. By comparing these values with the absorbance difference obtained at the well in which each test compound was added, the cell viability (% viability) after treatment with the test compound was calculated.
# [4] = system: human mammary cancer BT-474 cells; assay: Growth inhibition test on human mammary cancer BT-474 cells (WST-1, % viability); settings: test compound 10 μmol/L, cells without test compound = 100%
# Protocol: as §1, with “Four” for “One”, “mammary cancer BT-474” for “chronic myelocytic leukemia K562”, “Dulbecco's Modified Eagle's Medium (DMEM)” for “RPMI1640 medium”, “FCS,” for “fetal calf serum (FCS),”, “DMSO” for “dimethyl sulfoxide (DMSO)”, “WST-1” for “WST-1 {4-[3-(4-Iodophenyl)-2-(4-nitrophenyl)-2H-5-tetrazolio]-1,3-benzene disulfonate}”
Structure (SMILES),"Viability of tumor cells (% viability), Human chronic myelocytic leukemia K562 cells [1]","Viability of tumor cells (% viability), Human multiple myeloma NCI-H929 cells [2]","Viability of tumor cells (% viability), Human chronic lymphocytic leukemia MEC-1 cells [3]","Viability of tumor cells (% viability), Human mammary cancer BT-474 cells [4]"
CCc1c(O)cc(O)c(C(=O)c2ccc(OC)cc2)c1CC(=O)N(CCO)CCO [Compound 13],26%,0%,7%,12%
CCc1c(O)cc(O)c(C(=O)c2ccc(OC)cc2)c1CC(=O)N(C)Cc1cccnc1 [Compound 16],4%,0%,3%,12%
CCc1c(O)cc(O)c(C(=O)c2ccc(OC)cc2)c1CC(=O)N1CCN(c2ccccc2C#N)CC1 [Compound 17],4%,0%,4%,10%
CCc1c(O)cc(O)c(C(=O)c2ccc(OC)cc2)c1CC(=O)N1CCN(c2ncccn2)CC1 [Compound 32],4%,0%,4%,13%
CCc1c(O)cc(O)c(C(=O)c2ccc(OC)cc2)c1CC(=O)N(CCO)CCOC [Compound 33],4%,0%,4%,13%
CCc1c(O)cc(O)c(C(=O)c2ccc(OC)cc2)c1CC(=O)N1CCc2cc(OC)c(OC)cc2C1 [Compound 38],4%,0%,4%,13%
CCc1c(O)cc(O)c(C(=O)c2ccc(OC)c(OC)c2)c1CC(=O)N1CCN(c2ccccc2)CC1 [Compound 41],4%,0%,4%,14%
CCc1c(O)cc(O)c(C(=O)c2ccc(OC)c(OC)c2)c1CC(=O)N(CCO)CCOC [Compound 56],5%,0%,4%,13%
CCc1c(O)cc(O)c(C(=O)c2ccc(OC)cc2)c1CC(=O)N1CCC(CO)CC1 [Compound 61],5%,0%,5%,12%
CCc1c(O)cc(O)c(C(=O)c2ccc(OC)cc2)c1CC(=O)N(CCO)Cc1ccco1 [Compound 69],4%,0%,4%,13%
CCc1c(O)cc(O)c(C(=O)c2ccc(OC(F)(F)F)cc2)c1CC(=O)N(CCO)CCOC [Compound 88],4%,0%,5%,13%
CCc1c(O)cc(O)c(C(=O)c2ccc(OC(F)F)cc2)c1CC(=O)N(CCO)CCOC [Compound 91],4%,0%,4%,13%
CCc1c(O)cc(O)c(C(=O)c2ccc(SC)cc2)c1CC(=O)N(CCO)CCOC [Compound 95],4%,0%,4%,13%
CCc1c(O)cc(O)c(C(=O)c2ccc(O)c(OC)c2)c1CC(=O)N(CCOC)CCOC [Compound 106],4%,0%,4%,12%
CCc1c(O)cc(O)c(C(=O)c2ccc(S(C)(=O)=O)cc2)c1CC(=O)N(CCOC)CCOC [Compound 107],5%,0%,5%,13%
CCOc1ccc(C(=O)c2c(O)cc(O)c(CC)c2CC(=O)N(CCO)CCOC)cc1 [Compound 122],4%,0%,4%,12%
CCc1c(O)cc(O)c(C(=O)c2ccc(OC(C)C)cc2)c1CC(=O)N(CCO)CCOC [Compound 124],4%,0%,4%,13%
CCc1c(O)cc(O)c(C(=O)c2ccc(OCCN3CCOCC3)c(OC)c2)c1CC(=O)N(CCOC)CCOC [Compound 125],4%,0%,5%,14%
